Legend:
ALK-wt = biological target: T1, ALK-wt (Homo sapiens, UniProt Q9UM73); test: Biochemical kinase assay, ALK-wt kinase domain; settings: apparent inhibitory constant, Morrison equation; ATP 2 mM in substrate solution; read-out: ALK-wt Ki^app
T1 construct: purchased Carna 08-518
Procedure, shortened: (§1)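 Compound in DMSO added first, then substrate solution (ATP 2 mM; AQT0101 or AQT0104, 26 μM; pH 7.5 HEPES, 10 mM MgCl2), then kinase solution with enzyme at 0.5–3 nM depending on construct. Kinetic read every 2 min for 120 min at 30° C; Ki^app by Morrison regression.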

ALK L1196M/G1202R = biological target: T2, ALK L1196M/G1202R (Homo sapiens, UniProt Q9UM73, G1202R/L1196M); test: Biochemical kinase assay, ALK L1196M/G1202R kinase domain; settings: apparent inhibitory constant, Morrison equation; ATP 2 mM in substrate solution; read-out: ALK-L1196M-G1202R Ki^app
T2 construct: purchased SignalChem A19-12NG
T2 sequence (Q9UM73 1116-1392 L1196M/G1202R limits assumed): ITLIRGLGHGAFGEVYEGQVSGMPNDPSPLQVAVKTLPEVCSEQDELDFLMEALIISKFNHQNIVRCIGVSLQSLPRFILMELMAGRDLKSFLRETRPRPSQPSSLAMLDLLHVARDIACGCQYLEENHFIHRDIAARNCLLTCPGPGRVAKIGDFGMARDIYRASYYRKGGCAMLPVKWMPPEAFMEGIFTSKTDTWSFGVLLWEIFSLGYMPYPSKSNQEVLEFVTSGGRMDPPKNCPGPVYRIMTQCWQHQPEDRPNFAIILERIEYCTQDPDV
Procedure, shortened: as §1

ROS1-wt = biological target: T3, ROS1-wt (Homo sapiens, UniProt P08922); test: Biochemical kinase assay, ROS1-wt kinase domain; settings: apparent inhibitory constant, Morrison equation; ATP 2 mM in substrate solution; read-out: ROS1-wt Ki^app
T3 construct: purchased Carna 08-163
T3 sequence (P08922 1945-2222 limits assumed): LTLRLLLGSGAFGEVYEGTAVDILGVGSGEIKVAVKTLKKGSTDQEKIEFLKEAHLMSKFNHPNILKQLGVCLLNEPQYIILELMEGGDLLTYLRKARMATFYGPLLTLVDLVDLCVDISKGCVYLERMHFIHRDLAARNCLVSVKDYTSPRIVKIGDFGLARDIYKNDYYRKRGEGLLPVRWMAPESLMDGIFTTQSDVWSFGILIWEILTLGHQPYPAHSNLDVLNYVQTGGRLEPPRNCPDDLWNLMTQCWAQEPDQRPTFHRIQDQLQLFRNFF
Procedure, shortened: (§2)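 Kinetic read: 485 nm, 2-min intervals, 120 min, 30 °C. Substrate mix — ATP 2 mM, AQT0101 26 μM, HEPES 50 mM pH 7.5, MgCl2 10 mM. Output: Ki^app, Morrison equation.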

ROS1-G2032R = biological target: T4, ROS1-G2032R (Homo sapiens, UniProt P08922, G2032R); test: Biochemical kinase assay, ROS1-G2032R kinase domain; settings: apparent inhibitory constant, Morrison equation; ATP 2 mM in substrate solution; read-out: ROS1-G2032R Ki^app
T4 construct: purchased SignalChem R14-12BG
T4 sequence (P08922 1945-2222 G2032R limits assumed): as the sequence (P08922 1945-2222 limits assumed) above, with G88R counted along it
Procedure, shortened: as §2

TRKA-wt = biological target: T5, TRKA-wt (Homo sapiens, UniProt P04629); test: Biochemical kinase assay, TRKA-wt kinase domain; settings: apparent inhibitory constant, Morrison equation; ATP 2 mM in substrate solution; read-out: TRKA-wt Ki^app
T5 construct: or TRKA-wt (1 nM, BPS Bio, 40280) kinase domains in buffer; purchased BPS Bio 40280
T5 sequence (P04629 510-781 limits assumed): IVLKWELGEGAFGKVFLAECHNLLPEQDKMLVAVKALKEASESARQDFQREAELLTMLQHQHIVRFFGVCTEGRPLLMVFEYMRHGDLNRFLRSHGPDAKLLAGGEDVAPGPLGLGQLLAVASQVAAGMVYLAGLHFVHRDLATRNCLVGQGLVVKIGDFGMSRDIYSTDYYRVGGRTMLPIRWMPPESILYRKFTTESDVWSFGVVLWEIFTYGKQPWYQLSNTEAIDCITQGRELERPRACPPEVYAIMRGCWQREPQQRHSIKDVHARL
Procedure, shortened: as §1

[1] = biological target: T6, Ba/F3 cells CD74-ROS1 wild-type (wt) (Homo sapiens, UniProt P08922); test: Ba/F3 cell proliferation assay, CD74-ROS1 wild-type; format: cell-based; settings: 72 hours, CellTiter-Glo
T6 construct: fusion of the C-terminus of ROS1 with the N-terminus of various partner proteins; host or cells: Ba/F3 (RIKEN), retroviral pMSCV-puro; the other entry of the earlier key: CD74 (P04233, HLA class II histocompatibility antigen gamma chain)
T6 sequence (P08922 1883-2347 limits assumed): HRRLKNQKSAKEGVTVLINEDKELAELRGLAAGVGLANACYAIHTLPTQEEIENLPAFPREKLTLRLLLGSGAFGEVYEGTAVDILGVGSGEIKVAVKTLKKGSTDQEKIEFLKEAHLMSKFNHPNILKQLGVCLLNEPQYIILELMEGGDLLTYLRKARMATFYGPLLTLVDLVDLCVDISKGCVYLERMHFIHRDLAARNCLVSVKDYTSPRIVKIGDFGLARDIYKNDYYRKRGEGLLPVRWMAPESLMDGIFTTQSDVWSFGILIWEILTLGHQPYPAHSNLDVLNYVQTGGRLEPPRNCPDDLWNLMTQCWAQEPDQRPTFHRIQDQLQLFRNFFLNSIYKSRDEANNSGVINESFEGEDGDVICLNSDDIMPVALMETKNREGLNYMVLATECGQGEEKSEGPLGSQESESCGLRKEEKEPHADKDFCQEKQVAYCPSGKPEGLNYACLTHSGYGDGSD
Procedure, shortened: (§3)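 IL-3-independent Ba/F3 CD74-ROS1 lines, puromycin-selected monoclones; 1,000 cells/well, plated 1 d before dosing; 3-fold serial dilutions, 72 h; CellTiter-Glo luminescence; IC50 by 4-parameter logistic regression.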

[2] = biological target: T7, Ba/F3 cells CD74-ROS1 G2032R (Homo sapiens, UniProt P08922, G2032R); test: Ba/F3 cell proliferation assay, CD74-ROS1 G2032R; format: cell-based; settings: 72 hours, CellTiter-Glo
T7 construct: fusion of the C-terminus of ROS1 with the N-terminus of various partner proteins; host or cells: Ba/F3 (RIKEN), retroviral pMSCV-puro; the other entry of the earlier key: CD74 (P04233, HLA class II histocompatibility antigen gamma chain)
T7 sequence (P08922 1883-2347 G2032R limits assumed): as the sequence (P08922 1883-2347 limits assumed) above, with G150R counted along it
Procedure, shortened: as §3

[3] = biological target: T8, Ba/F3 cells EML4-ALK wt (variant 1) (Homo sapiens, UniProt Q9UM73); test: Ba/F3 cell proliferation assay, EML4-ALK wt (variant 1); format: cell-based; settings: 72 hours, CellTiter-Glo
T8 construct: echinoderm microtubule-associated protein-like 4 (EML4) gene and the ALK tyrosine kinase domain; host or cells: Ba/F3 (RIKEN), retroviral pMSCV-puro; the other entry of the earlier key: EML4 (Q9HC35, Echinoderm microtubule-associated protein-like 4)
T8 sequence (Q9UM73 with tags, fused parts or gaps): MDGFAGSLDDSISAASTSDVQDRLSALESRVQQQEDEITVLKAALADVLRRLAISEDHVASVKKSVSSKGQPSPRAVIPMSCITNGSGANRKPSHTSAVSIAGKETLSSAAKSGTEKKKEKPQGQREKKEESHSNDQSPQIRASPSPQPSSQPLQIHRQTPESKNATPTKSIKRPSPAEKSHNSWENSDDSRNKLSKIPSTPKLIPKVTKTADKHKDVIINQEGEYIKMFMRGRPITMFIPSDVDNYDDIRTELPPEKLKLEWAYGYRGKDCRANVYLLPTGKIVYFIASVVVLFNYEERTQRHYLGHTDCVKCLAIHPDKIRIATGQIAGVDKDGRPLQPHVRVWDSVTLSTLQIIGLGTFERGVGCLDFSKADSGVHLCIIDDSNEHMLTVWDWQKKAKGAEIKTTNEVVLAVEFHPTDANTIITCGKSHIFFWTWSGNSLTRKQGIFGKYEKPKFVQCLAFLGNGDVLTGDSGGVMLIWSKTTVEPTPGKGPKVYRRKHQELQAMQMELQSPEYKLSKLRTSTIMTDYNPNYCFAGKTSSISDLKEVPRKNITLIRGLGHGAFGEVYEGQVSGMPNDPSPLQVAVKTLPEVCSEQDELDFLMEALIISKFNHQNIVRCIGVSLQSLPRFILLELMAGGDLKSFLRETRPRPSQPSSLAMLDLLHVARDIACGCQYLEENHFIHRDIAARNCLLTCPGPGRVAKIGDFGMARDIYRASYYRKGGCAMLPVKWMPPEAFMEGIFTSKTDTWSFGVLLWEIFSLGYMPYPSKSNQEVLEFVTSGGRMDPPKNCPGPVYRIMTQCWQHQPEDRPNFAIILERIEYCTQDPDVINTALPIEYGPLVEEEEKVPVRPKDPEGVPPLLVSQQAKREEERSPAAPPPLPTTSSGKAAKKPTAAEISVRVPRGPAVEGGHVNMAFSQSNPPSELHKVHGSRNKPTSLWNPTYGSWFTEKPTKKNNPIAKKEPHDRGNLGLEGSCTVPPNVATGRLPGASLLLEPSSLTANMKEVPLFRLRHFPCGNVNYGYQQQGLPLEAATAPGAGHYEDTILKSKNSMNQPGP
Procedure, shortened: (§4)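 IL-3-independent Ba/F3 monoclones, puromycin-selected, transduced with fusion genes; 1,000 cells/well, 1 day rest, 3-fold compound series, 72 h. Read: CellTiter-Glo luminescence. IC50 from % inhibition vs concentration, 4-parameter logistic.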

[4] = biological target: T9, Ba/F3 cells EML4-ALK L1196M/G1202R (variant 1) (Homo sapiens, UniProt Q9UM73, G1202R/L1196M); test: Ba/F3 cell proliferation assay, EML4-ALK L1196M/G1202R (variant 1); format: cell-based; settings: 72 hours, CellTiter-Glo
T9 construct: echinoderm microtubule-associated protein-like 4 (EML4) gene and the ALK tyrosine kinase domain; host or cells: Ba/F3 (RIKEN), retroviral pMSCV-puro; the other entry of the earlier key: EML4 (Q9HC35, Echinoderm microtubule-associated protein-like 4)
T9 sequence (Q9UM73 with tags, fused parts or gaps L1196M/G1202R): as the sequence (Q9UM73 with tags, fused parts or gaps) above, with L635M, G641R counted along it
Procedure, shortened: as §4

Ba/F3 cells TPM3-TRKA = biological target: T10, Ba/F3 cells TPM3-TRKA (Homo sapiens, UniProt P04629); test: Ba/F3 cell proliferation assay, TPM3-TRKA; format: cell-based; settings: 72 hours, CellTiter-Glo, read-out: TPM3-NTRK1-wt IC50
T10 construct: host or cells: Ba/F3 (RIKEN), retroviral pMSCV-puro; the other entry of the earlier key: TPM3 (P06753, Tropomyosin alpha-3 chain)
T10 sequence (P04629 510-796 limits assumed): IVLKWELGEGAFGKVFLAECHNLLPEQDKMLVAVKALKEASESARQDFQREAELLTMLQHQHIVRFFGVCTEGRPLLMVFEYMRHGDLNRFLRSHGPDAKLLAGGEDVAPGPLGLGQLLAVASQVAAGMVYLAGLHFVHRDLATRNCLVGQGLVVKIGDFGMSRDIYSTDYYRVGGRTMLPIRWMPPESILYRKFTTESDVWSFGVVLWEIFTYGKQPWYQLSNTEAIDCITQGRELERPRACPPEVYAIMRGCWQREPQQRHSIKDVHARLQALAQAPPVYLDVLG
Procedure, shortened: as §4

[5] = tested on: TPM3-NTRK1-wt IC50 / primary target IC50 (e.g. CD74-ROS1-wt); test: TRKA selectivity in Ba/F3 cells (TRKA potency divided by primary target potency); format: cell-based; settings: for TPM3-NTRK1-wt/CD74-ROS1-G2032R selectivity ratio: TRKA potency / CD74-ROS1-G2032R potency; for TPM3-NTRK1-wt/CD74-ROS1-wt selectivity ratio: TRKA potency / CD74-ROS1-wt potency; for TPM3-NTRK1-wt/EML4-ALK-L1196M-G1202R selectivity ratio: TRKA potency / EML4-ALK-L1196M-G1202R potency; for TPM3-NTRK1-wt/EML4-ALK-wt selectivity ratio: TRKA potency / EML4-ALK-wt potency
Protocol: TRKA selectivity was calculated by dividing a compound's TRKA potency by its primary target potency (e.g. TPM3-NTRK1-wt IC50/CD74-ROS1-wt IC50). Compound selectivity can be interpreted by binning ratio values: bin A for very high selectivity, ratio >30-fold; bin B for high selectivity, ratio >10-fold; bin C for moderate selectivity, ratio ≥1; and bin D for low selectivity, ratio <1. […] (nd=not determined).

T1 sequence (Q9UM73 1116-1392 limits assumed): as the sequence (Q9UM73 1116-1392 L1196M/G1202R limits assumed) above, with M81L, R87G counted along it

| Compound | Ki (ALK-wt) [µM] | Ki (ALK L1196M/G1202R) [µM] | Ki (ROS1-wt) [µM] | Ki (ROS1-G2032R) [µM] | Ki (TRKA-wt) [µM] | IC50 [1] [µM] | IC50 [2] [µM] | IC50 [3] [µM] | IC50 [4] [µM] | IC50 (Ba/F3 cells TPM3-TRKA) [µM] | TPM3-NTRK1-wt/CD74-ROS1-G2032R selectivity ratio [5] | TPM3-NTRK1-wt/CD74-ROS1-wt selectivity ratio [5] | TPM3-NTRK1-wt/EML4-ALK-L1196M-G1202R selectivity ratio [5] | TPM3-NTRK1-wt/EML4-ALK-wt selectivity ratio [5] |
| --- | --- | --- | --- | --- | --- | --- | --- | --- | --- | --- | --- | --- | --- | --- |
| Cc1cc2n(n1)Cc1cnn(CCF)c1-c1cnc(N)c(c1)O[C@H](C)c1cc(F)ccc1-2 [Example 92, (19R)-16-fluoro-3-(2-fluoroethyl)-10,19-dimethyl-20-oxa-3,4,8,9,23-pentaazapentacyclo[19.3.1.0^2,^6.0^8,^12.0^13,^18]pentacosa-1(24),2(6),4,9,11,13,15,17,21(25),22-decaen-22-amine] | < 0.05 | < 0.05 | < 0.05 | < 0.05 | > 0.5 | 0.0001 to 0.05 | 0.0001 to 0.05 | 0.0001 to 0.05 | 0.05 to 0.5 | 0.05 to 0.5 | A (bin A for very high selectivity, ratio >30-fold) | A (bin A for very high selectivity, ratio >30-fold) | C (bin C for moderate selectivity, ratio ≥1) | B (bin B for high selectivity, ratio >10-fold) |
| CCn1ncc2c1-c1cnc(N)c(c1)O[C@H](C)c1cc(F)ccc1-c1c(C#N)cnn1C2 [Example 3, (19R)-22-amino-3-ethyl-16-fluoro-19-methyl-20-oxa-3,4,8,9,23-pentaazapentacyclo[19.3.1.0^2,^6.08,^12.0^13,^18]pentacosa-1(24),2(6),4,9,11,13,15,17,21(25),22-decaene-11 carbonitrile] | < 0.05 | < 0.05 | < 0.05 | < 0.05 | 0.05 to 0.5 | 0.0001 to 0.05 | 0.0001 to 0.05 | 0.0001 to 0.05 | 0.05 to 0.5 | > 0.5 | A (bin A for very high selectivity, ratio >30-fold) | A (bin A for very high selectivity, ratio >30-fold) | C (bin C for moderate selectivity, ratio ≥1) | A (bin A for very high selectivity, ratio >30-fold) |
| Cc1nn(CC2CC2)c2c1Cn1nccc1-c1ccc(F)cc1[C@@H](C)Oc1cc-2cnc1N [Example 45, (19R)-3-(cyclopropylmethyl)-16-fluoro-5,19-dimethyl-20-oxa-3,4,8,9,23-pentaazapentacyclo[19.3.1.0^2,^6.0^8,^12.0^13,^18]pentacosa-1(24),2(6),4,9,11,13,15,17,21(25),22-decaen-22-amine] | < 0.05 | < 0.05 | < 0.05 | < 0.05 | > 0.5 | 0.0001 to 0.05 | 0.0001 to 0.05 | 0.0001 to 0.05 | 0.05 to 0.5 | > 0.5 | A (bin A for very high selectivity, ratio >30-fold) | A (bin A for very high selectivity, ratio >30-fold) | A (bin A for very high selectivity, ratio >30-fold) | A (bin A for very high selectivity, ratio >30-fold) |
| C[C@H]1Oc2cc(cnc2N)-c2c(CC3CC3)noc2Cc2nn(C)nc2-c2ccc(F)cc21 [Example 63, (19R)-3-(cyclopropylmethyl)-16-fluoro-10,19-dimethyl-5,20-dioxa-4,9,1 0,11,23-pentaazapentacyclo [19.3.1.0^2,^6.0^8,^12.0^13,^18]pentacosa-1(24),2(6),3,8,11,13,15,17,21(25),22-decaen-22-amine] | < 0.05 | < 0.05 | < 0.05 | < 0.05 | > 0.5 | 0.0001 to 0.05 | 0.0001 to 0.05 | 0.0001 to 0.05 | 0.0001 to 0.05 | 0.05 to 0.5 | A (bin A for very high selectivity, ratio >30-fold) | A (bin A for very high selectivity, ratio >30-fold) | B (bin B for high selectivity, ratio >10-fold) | A (bin A for very high selectivity, ratio >30-fold) |
| CCc1noc2c1-c1cnc(N)c(c1)O[C@H](C)c1cc(F)ccc1-c1nn(C)nc1C2 [Example 22, (19R)-3-ethyl-16-fluoro-10,19-dimethyl-5,20-dioxa-4,9,10,11,23-pentaazapentacyclo[19.3.1.0^2,^6.0^8,^12.0^13,^18]pentacosa-1(24),2(6),3,8,11,13,15,17,21(25),22-decaen-22-amine] | < 0.05 | < 0.05 | < 0.05 | < 0.05 | 0.05 to 0.5 | 0.0001 to 0.05 | 0.0001 to 0.05 | 0.0001 to 0.05 | 0.05 to 0.5 | 0.05 to 0.5 | A (bin A for very high selectivity, ratio >30-fold) | A (bin A for very high selectivity, ratio >30-fold) | C (bin C for moderate selectivity, ratio ≥1) | B (bin B for high selectivity, ratio >10-fold) |
| C[C@H]1Oc2cc(cnc2N)-c2c(C3CCC3)noc2Cc2nn(C)nc2-c2ccc(F)cc21 [Example 26, (19R)-3-cyclobutyl-16-fluoro-10,19-dimethyl-5,20-dioxa-4,9,10,11,23-pentaazapentacyclo[19.3.1.0^2,^6.0^8,^12.0^13,^18]pentacosa-1(24),2(6),3,8,11,13,15,1 7,21(25),22-decaen-22-amine] | < 0.05 | < 0.05 | < 0.05 | < 0.05 | > 0.5 | 0.0001 to 0.05 | 0.0001 to 0.05 | 0.0001 to 0.05 | 0.0001 to 0.05 | 0.05 to 0.5 | A (bin A for very high selectivity, ratio >30-fold) | A (bin A for very high selectivity, ratio >30-fold) | C (bin C for moderate selectivity, ratio ≥1) | A (bin A for very high selectivity, ratio >30-fold) |

— US12054498B2, “Heteroaromatic macrocyclic ether chemotherapeutic agents” (Nuvalent, Inc., priority 2020, dated 2024)
